How the values were obtained:
E. coli B [1] = experiment: Amplification of the antibacterial (cell-killing) activity of phleomycin in stationary phase cultures, viable cell counts; format: cell-based; conditions: concentration of optimum activity after phleomycin pretreatment (2 μg/ml, 30 min, 37°); 120 min treatment
Experimental: The ability of the compounds to potentiate the cell-killing effects of phleomycin was measured by the following procedure. Stationary phase cultures of E. coli B, with or without the compounds under test, were resuspended in growth medium containing phleomycin (2 μg/ml) and incubated at 37° for 30 minutes. The cells were then membrane filtered (0.45 μm pore size; 2.5 cms), washed with growth medium (20 μg/ml) and resuspended in growth medium (20 μg/ml) at 37° C. containing various concentrations, between 10^-10 M and 10^-2 M, of the compound under test. As a control, bacteria were exposed to the same range of concentrations of each compound but without the phleomycin pretreatment. To determine viable cell numbers aliquots were taken from each cell suspension after 120 minutes treatments, plated on agar medium and incubated overnight at 37° C. All operations with amplifying agents were carried out in near dark conditions.
Compounds were designated as active when the increase in activity with the combined treatment was greater than could be explained by the effects of the two compounds when administered separately.

Walker rat carcinoma 256 = experiment: Survival of rats bearing Walker rat carcinoma 256 ascites tumour, treated with phleomycin plus amplifier; format: in vivo, Sprague Dawley rats; conditions: for amplification of the activity of phleomycin (survival of tumour-bearing rats): doses as in Table 2
Experimental: Walker rat carcinoma 256 as the ascites form was passaged in female Sprague Dawley rats. […] Intraperitoneal injections of 0.1 ml (10^6 viable cells) of the suspension were then made into test groups of 6-8 male Sprague Dawley rats.
Phleomycin dissolved in phosphate-buffered saline was given to animals in the test groups as 0.1 ml intraperitoneal injections twice daily; each injection was followed by a 0.1 ml intraperitoneal injection of the prospective amplifier. The treatments were given for 5-10 days, at varying concentrations of the phleomycin and amplifier.
The method of evaluating the effectiveness of the various treatments was based on those used in the screening programme of the Drug Evaluation Branch, National Cancer Institute, National Institute of Health, Bethesda, Maryland, U.S.A. (Cancer Chemotherapy Reports, Vol. 3, No. 2, September 1972). Thus the effectiveness of the drug treatment was measured by the increased survival time, measured in days, of the treated animals over control ones which received no drugs. Dead animals were counted daily, and median survival times (MST) calculated for all groups. […] The ratios (test group median survival time) divided by (control group median survival time)× 100 (T/C) were calculated for all the test groups.

E. coli B [2] = experiment: Amplification of the antibacterial (cell-killing) activity of phleomycin in stationary phase cultures, viable cell counts; format: cell-based; conditions: envisaged from present studies; phleomycin at about 1 mg/l (or mg/kg)
[3] = Malachite Green 52 MKD alone (phleomycin 0), ×2 daily
[4] = phleomycin 8 MKD + Malachite Green 52 MKD, i.p. ×2 daily
[5] = Auramin 0 7.6 MKD alone (phleomycin 0), ×2 daily
[6] = phleomycin 8 MKD + Auramin 0 7.6 MKD, i.p. ×2 daily
[7] = Neutral Red 20 MKD alone (phleomycin 0), ×2 daily
[8] = phleomycin 8 MKD + Neutral Red 20 MKD, i.p. ×2 daily
[9] = phleomycin 16 MKD + Neutral Red 20 MKD, i.p. ×2 daily
[10] = phleomycin 32 MKD + Neutral Red 20 MKD, i.p. ×2 daily
[11] = Brilliant Green 640 MKD alone (phleomycin 0), ×2 daily
[12] = phleomycin 5 MKD + Brilliant Green 640 MKD, i.p. ×2 daily
[13] = phleomycin 10 MKD + Brilliant Green 640 MKD, i.p. ×2 daily
[14] = phleomycin 20 MKD + Brilliant Green 640 MKD, i.p. ×2 daily
[15] = Crystal Violet 0.5 MKD alone (phleomycin 0), twice daily from days 2 to 10
[16] = phleomycin 4 MKD + Crystal Violet 0.5 MKD, i.p. twice daily from days 2 to 10
[17] = 4,4'-bis(trimethylammonio)diphenylmethane dichloride 270 MKD alone (phleomycin 0), ×2 daily
[18] = phleomycin 4 MKD + 4,4'-bis(trimethylammonio)diphenylmethane dichloride 270 MKD, i.p. ×2 daily

CN(C)c1ccc(C(=C2C=CC(=[N+](C)C)C=C2)c2ccccc2)cc1.[Cl-] [Malachite green]
Optimum Concentration tested (E. coli B [1]): 3 µM
MST (Walker rat carcinoma 256; [3]): 8 days
T/C (Walker rat carcinoma 256; [3]): 100
amplification of the activity of phleomycin (survival of tumour-bearing rats) (Walker rat carcinoma 256): amplified the activity of phleomycin
MST (Walker rat carcinoma 256; [4]): 16.5 days
T/C (Walker rat carcinoma 256; [4]): 206

Cc1cc2nc3ccc(N(C)C)cc3[s+]c2cc1N.[Cl-] [Toluidine Blue]
Optimum Concentration tested (E. coli B [1]): 16 µM

C[N+](C)(C)c1ccc(-c2ccc([N+](C)(C)C)cc2)cc1.[Cl-].[Cl-] [4,4'-bis(trimethylammonio)diphenyl-dichloride]
Optimum Concentration tested (E. coli B [1]): 310 µM

CN(C)c1ccc(C(=N)c2ccc(N(C)C)cc2)cc1.Cl [Auramin O]
Optimum Concentration tested (E. coli B [1]): 3.3 µM
MST (Walker rat carcinoma 256; [5]): 9.5 days
T/C (Walker rat carcinoma 256; [5]): 95
amplification of the activity of phleomycin (survival of tumour-bearing rats) (Walker rat carcinoma 256): amplified the activity of phleomycin
MST (Walker rat carcinoma 256; [6]): 18 days
T/C (Walker rat carcinoma 256; [6]): > 180

Methyl Violet
Optimum Concentration tested (E. coli B [1]): 1.6 µM

CC[n+]1c(-c2ccccc2)c2cc(N)ccc2c2ccc(N)cc21.[Br-] [Ethidium bromide]
adequate concentration of amplifier in conjunction with phleomycin (E. coli B [2]): 10^-4 molar
Optimum Concentration tested (E. coli B [1]): 13 µM

Cc1cc2nc3ccc(N(C)C)cc3nc2cc1N.Cl [Neutral Red]
Optimum Concentration tested (E. coli B [1]): 33 µM
enhancement of the ability of phleomycin to prolong the survival of rats carrying tumours (Walker rat carcinoma 256; Neutral Red 20 μg/kg/day with phleomycin at 8, 16 or 32 micrograms/kg/day): active
MST (Walker rat carcinoma 256; [7]): 11.0 days
T/C (Walker rat carcinoma 256; [7]): 79
MST (Walker rat carcinoma 256; [8]): 20 days
T/C (Walker rat carcinoma 256; [8]): 143
MST (Walker rat carcinoma 256; [9]): > 30 days
T/C (Walker rat carcinoma 256; [9]): > 214
MST (Walker rat carcinoma 256; [10]): > 30 days
T/C (Walker rat carcinoma 256; [10]): > 214

CC[N+](CC)=c1ccc2nc3c(cc(N)c4ccccc43)oc-2c1 [Nile Blue]
Optimum Concentration tested (E. coli B [1]): 2.7 µM

CCN(CC)c1ccc(C(=C2C=CC(=[N+](CC)CC)C=C2)c2ccccc2)cc1.O=S(=O)([O-])O [Brilliant Green]
Optimum Concentration tested (E. coli B [1]): 9.6 µM
MST (Walker rat carcinoma 256; [11]): 9 days
T/C (Walker rat carcinoma 256; [11]): 112
amplification of the activity of phleomycin (survival of tumour-bearing rats) (Walker rat carcinoma 256): amplified the activity of phleomycin
MST (Walker rat carcinoma 256; [12]): 10 days
T/C (Walker rat carcinoma 256; [12]): 125
MST (Walker rat carcinoma 256; [13]): 11 days
T/C (Walker rat carcinoma 256; [13]): 138
MST (Walker rat carcinoma 256; [14]): 11 days
T/C (Walker rat carcinoma 256; [14]): 138

CN(C)c1ccc2nc3ccc(=[N+](C)C)cc-3sc2c1.[Cl-] [Methylene Blue]
Optimum Concentration tested (E. coli B [1]): 13 µM

Nc1cc2nc3ccccc3oc-2cc1=O [2-aminophenoxazone]
Optimum Concentration tested (E. coli B [1]): 25 µM

CCNc1ccc2c(-c3ccccc3C(=O)O)c3ccc(=[N+](CC)CC)cc-3oc2c1.[Cl-] [Rhodamine G]
Optimum Concentration tested (E. coli B [1]): 120 µM

CN(C)c1ccc2cc3ccc(=[N+](C)C)cc-3oc2c1.[Cl-] [Pyronin Y]
Optimum Concentration tested (E. coli B [1]): 170 µM

CC[n+]1c(C=Cc2ccc(N(C)C)cc2)ccc2ccccc21.[Cl-] [2-p-dimethylaminostyryl-N-ethyl-quinolinium chloride]
Optimum Concentration tested (E. coli B [1]): 0.3 µM

CCN(CC)CCCC(C)Nc1c2ccc(Cl)cc2nc2ccc(OC)cc12 (stereo not shown) [Quinacrine]
Optimum Concentration tested (E. coli B [1]): 39 µM

C[N+](C)(C)c1ccc2cc3ccc([N+](C)(C)C)cc3c(-c3c4cc([N+](C)(C)C)ccc4cc4ccc([N+](C)(C)C)cc34)c2c1.[Cl-].[Cl-].[Cl-].[Cl-] [2,2', 7,7'-tetrakis(trimethylammonio)-9,9'-dianthracene tetrachloride]
Optimum Concentration tested (E. coli B [1]): 50 µM

Brilliant Cresol Blue
Optimum Concentration tested (E. coli B [1]): 340 µM

Cc1cc2nc3cc(C)c(N)cc3[n+](-c3ccccc3)c2cc1N.[Cl-] [Safranin T]
Optimum Concentration tested (E. coli B [1]): 14 µM

CN(C)c1ccc(C(=C2C=CC(=[N+](C)C)C=C2)c2ccc(N(C)C)cc2)cc1 [Crystal Violet]
adequate concentration of amplifier in conjunction with phleomycin (E. coli B [2]): 10^-7 molar
Optimum Concentration tested (E. coli B [1]): 2.4 µM
MST (Walker rat carcinoma 256; [15]): 12.5 days
T/C (Walker rat carcinoma 256; [15]): 104
amplification of the activity of phleomycin (survival of tumour-bearing rats) (Walker rat carcinoma 256): amplified the activity of phleomycin
MST (Walker rat carcinoma 256; [16]): > 30 days
T/C (Walker rat carcinoma 256; [16]): 250

C[N+](C)(C)c1ccc(Cc2ccc([N+](C)(C)C)cc2)cc1 [4,4'-bis(trimethylammonio)diphenylmethane]
adequate concentration of amplifier in conjunction with phleomycin (E. coli B [2]): 10^-3 molar
Optimum Concentration tested (E. coli B [1]): 29 µM
MST (Walker rat carcinoma 256; [17]): 8.0 days
T/C (Walker rat carcinoma 256; [17]): 100
amplification of the activity of phleomycin (survival of tumour-bearing rats) (Walker rat carcinoma 256): amplified the activity of phleomycin
MST (Walker rat carcinoma 256; [18]): 10.0 days
T/C (Walker rat carcinoma 256; [18]): 125
